# Tested on: myotubes differentiated from C2C12 cells
# Test: Mitochondrial calcium rise in C2C12 myotubes (mitochondrial aequorin luminescence)
# Assay type: cell-based
# Conditions: C2C12-derived myotubes, taurine alone at the indicated concentrations (μM) vs. control, compounds added 2 hours before measurement, 28 experiments, P<0.05 one-way ANOVA
# Method: To test the effect of oleuropein (or oleuropein aglycone), taurine and their combination in living cells, the inventors measured mitochondrial calcium rise in myotubes differentiated from C2C12 cells. C2C12 cells were purchased from ATCC. C2C12 cells were seeded in 96-well plates at a density of 8000 cells per well in DMEM high glucose (Gibco)+10% fetal calf serum. Myotubes were differentiated by growing the C2C12 cells in DMEM containing 2% horse serum, for 4 days. Mitochondrial calcium measurements were carried out using myotubes infected with the adenovirus (from Sirion biotech) expressing the mitochondrially targeted calcium sensor mitochondrial mutated aequorin (Montero et al., 2002 Biochem J. 2002 Jul. 15; 365(Pt 2): 451-9). For aequorin reconstitution, 24 hours after infection, myotubes were incubated for 2 h at room temperature (22±°C.) in standard medium (145 mM NaCl, 5 mM KCl, 1 mM MgCl2, 1 mM CaCl2, 10 mM glucose and 10 mM Hepes, pH 7.4) with 1 μM wild-type coelenterazine. […] Luminescence was measured at the FLIPR Tetra Aequorin (Molecular Devices). Calibration of the luminescence data into calcium concentration was carried out using an algorithm as described previously (Montero et al, 2002, Biochem J. 2002 Jul. 15; 365(Pt 2): 451-9)). Custom module analysis based on Excel (Microsoft) and GhaphPad Prism 7.02 (GraphPad) software was used for quantification.
smiles,measurement,setting,value
"NCCS(=O)(=O)O [Taurine, 2-aminoethanesulfonic acid]","integrated mitochondrial calcium rise, evoked by 5 mM caffeine",,enhances mitochondrial Ca2+ elevation
same,"integrated mitochondrial calcium rise, evoked by 5 mM caffeine",listed as taurine,enhances mitochondrial function
